The target of experiment [1] is T1, transient receptor potential vanilloid-1 (TRPV1) (Rattus norvegicus, UniProt O35433).
T1 construct: rat recombinant TRPV1 stably expressed in HEK-293 cells
The experiment is described as follows: intracellular Ca2+ (Fluo-4) assay in HEK-293 cells expressing rat TRPV1; much lower effect, if any, in wild-type cells or after I-RTX. The format is cell-based.

The target of experiment [2] is T1, transient receptor potential vanilloid-1 (TRPV1). Kind of experiment: intracellular Ca2+ (Fluo-4) assay in HEK-293 cells expressing rat TRPV1. The format is cell-based.

We go through two compounds from publication PMC3616060, “Full Inhibition of Spinal FAAH Leads to TRPV1-Mediated Analgesic Effects in Neuropathic Rats and Possible Lipoxygenase-Mediated Remodeling of Anandamide Metabolism” (PLoS ONE, 2013).

T1 sequence (O35433 whole entry): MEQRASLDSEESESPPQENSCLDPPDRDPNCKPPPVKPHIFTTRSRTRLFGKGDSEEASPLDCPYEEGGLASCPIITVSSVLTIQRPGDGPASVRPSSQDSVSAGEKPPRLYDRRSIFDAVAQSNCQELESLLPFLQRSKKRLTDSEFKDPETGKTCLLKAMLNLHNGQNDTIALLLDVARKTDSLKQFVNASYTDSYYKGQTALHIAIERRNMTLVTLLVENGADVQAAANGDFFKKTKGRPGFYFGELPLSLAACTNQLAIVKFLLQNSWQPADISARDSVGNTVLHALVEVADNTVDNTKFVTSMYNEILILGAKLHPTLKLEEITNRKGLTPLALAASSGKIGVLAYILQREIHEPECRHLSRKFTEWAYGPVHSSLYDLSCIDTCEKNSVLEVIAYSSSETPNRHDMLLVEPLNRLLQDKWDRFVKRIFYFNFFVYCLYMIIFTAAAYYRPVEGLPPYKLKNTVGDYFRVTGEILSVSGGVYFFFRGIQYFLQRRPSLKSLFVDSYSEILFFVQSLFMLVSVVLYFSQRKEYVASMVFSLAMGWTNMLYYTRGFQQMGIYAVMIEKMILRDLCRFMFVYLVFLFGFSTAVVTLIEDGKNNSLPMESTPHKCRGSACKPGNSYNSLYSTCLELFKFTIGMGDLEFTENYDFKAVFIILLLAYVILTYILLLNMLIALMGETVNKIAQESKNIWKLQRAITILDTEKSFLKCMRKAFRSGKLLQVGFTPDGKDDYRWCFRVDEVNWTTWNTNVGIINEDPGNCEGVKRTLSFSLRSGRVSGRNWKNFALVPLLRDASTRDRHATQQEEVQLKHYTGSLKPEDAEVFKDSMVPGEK

In experiment [1], `CCCCC[C@H](O)/C=C/C=C\C/C=C\C/C=C\CCCC(=O)NCCO` [15S-HAEA, 15(S)-hydroxy-AEA] gave an EC50 of 11.3 ± 0.9 µM. As to `CCCCC/C=C\C/C=C\C/C=C\C/C=C\CCCC(=O)NCCO` [AEA, anandamide], the concentration giving a half-maximal response (EC50) in experiment [2] was determined as 0.24 ± 0.03 µM.

Broadly, the EC50 is the concentration at which the effect is half-maximal.
